# Laboratory results: patent publication US12617779B2, “Self degradation-type CDK9 inhibitor prodrug and liposome encapsulating same” (Sumitomo Pharma Co., Ltd., priority 2021, dated 2026)
# What was measured:
# [1] = Evaluation of conversion rate to active form in buffer solution (Experimental Example 1); type: physicochemical
# Protocol: For Examples 1 to 16 and Comparative Examples 1 to 14, the attrition rate of the test compound and the conversion rate of the test compound to Alvocidib in a buffer solution were calculated by the following method.
# Examples 1 to 16 and Comparative Examples 1 to 14 were each left in buffer solutions adjusted to pH 5.0, 5.5, 6.0, 6.5, 7.0 and 7.4, respectively, at a concentration of 25 umol/L at 37° C. After 0, 0.5, 1, 2 and 3 hours, the residual rates of the compounds of Examples […] and the production rate of Alvocidib were determined by HPLC.
# The buffer solutions used at each pH are as follows. • pH 5.0: 50 mM citrate buffer solution (pH 5.0) • pH 5.5: 50 mM citrate buffer solution (pH 5.5) • pH 6.0: 50 mM phosphate buffer solution (pH 6.0) • pH 6.5: 50 mM phosphate buffer solution (pH 6.5) • pH 7.0: 50 mM phosphate buffer solution (pH 7.0) • pH 7.4: 50 mM phosphate buffer solution (pH 7.4)
# (§1) The measurement conditions for HPLC are as follows.
# [2] = Stability evaluation of solution formulation (Experimental Example 2); type: physicochemical; conditions: for Production rate of Alvocidib / Residual rate: solution formulation
# Protocol: For Example 1, Example 2, Example 5, Example 6, Comparative Example 13 and Comparative Example 14, the attrition rate of the test compound and the conversion rate of the test compound to Alvocidib in a solution formulation were calculated by the following method.
# Example 1, Example 2, Example 5, Example 6, Comparative Example 13 and Comparative Example 14 were each added to buffer solutions adjusted to pH 3.0, 4.0 and 5.0, respectively, at a concentration of 0.1 mg/mL, and left at 5° C. After 0, 1, 2 and 4 weeks, the residual rates of the compounds of Example 1, Example 2, […], Comparative Example 13 and Comparative Example 14 and the production rate of Alvocidib were determined by HPLC.
# The buffer solutions used at each pH are as follows. • pH 3.0: 5 mM tartrate buffer solution/10% sucrose solution (pH 3.0) • pH 4.0: 5 mM tartrate buffer solution/10% sucrose solution (pH 4.0) • pH 5.0: 5 mM tartrate buffer solution/10% sucrose solution (pH 5.0)
# as §1
# • column: Acquity UPLC BEH C18, 1.7 um, 50×2.1 mm • column temperature: 40° C. • mobile phase: • A: water containing 0.1% trifluoroacetic acid • B: acetonitrile • A/B (min): • 80/20(0)→75/25(3)→0/100(3.5)→0/100(4)→80/20(4.01)→80/20(5) • flow rate: 0.8 mL/min • detection: ultraviolet visible detector, measurement wavelength 254 nm • injection: 3 μL
structure (smiles),measurement,setting,value
"CN1CC[C@H](c2c(OC(=O)N(C)CCN)cc(O)c3c(=O)cc(-c4ccccc4Cl)oc23)[C@H](O)C1 [Comparative Example 13, reference compound]",Production rate of Alvocidib,"[1]; pH5.0, 0 hr",0.0%
same,Residual rate,"[1]; pH5.0, 0 hr",99.8%
same,Stability in buffer solution at pH 5,"[1]; pH 5, 37° C., up to 2 or 3 hours",unstable
same,Production rate of Alvocidib,"[1]; pH5.0, 0.5 hr",2.2%
same,Residual rate,"[1]; pH5.0, 0.5 hr",96.0%
same,Production rate of Alvocidib,"[1]; pH5.0, 1 hr",4.1%
same,Residual rate,"[1]; pH5.0, 1 hr",94.0%
same,Production rate of Alvocidib,"[1]; pH5.0, 2 hr",8.3%
same,Residual rate,"[1]; pH5.0, 2 hr",90.8%
same,Production rate of Alvocidib,"[1]; pH5.0, 3 hr",12.3%
same,Residual rate,"[1]; pH5.0, 3 hr",86.5%
same,Production rate of Alvocidib,"[1]; pH5.5, 0 hr",0.0%
same,Residual rate,"[1]; pH5.5, 0 hr",98.3%
same,Production rate of Alvocidib,"[1]; pH5.5, 0.5 hr",6.5%
same,Residual rate,"[1]; pH5.5, 0.5 hr",91.3%
same,Production rate of Alvocidib,"[1]; pH5.5, 1 hr",11.9%
same,Residual rate,"[1]; pH5.5, 1 hr",85.5%
same,Production rate of Alvocidib,"[1]; pH5.5, 2 hr",22.6%
same,Residual rate,"[1]; pH5.5, 2 hr",73.9%
same,Production rate of Alvocidib,"[1]; pH5.5, 3 hr",32.2%
same,Residual rate,"[1]; pH5.5, 3 hr",64.7%
same,Production rate of Alvocidib,"[1]; pH6.0, 0 hr",0.0%
same,Residual rate,"[1]; pH6.0, 0 hr",98.7%
same,Production rate of Alvocidib,"[1]; pH6.0, 0.5 hr",23.8%
same,Residual rate,"[1]; pH6.0, 0.5 hr",72.9%
same,Production rate of Alvocidib,"[1]; pH6.0, 1 hr",40.3%
same,Residual rate,"[1]; pH6.0, 1 hr",56.3%
same,Production rate of Alvocidib,"[1]; pH6.0, 2 hr",63.0%
same,Residual rate,"[1]; pH6.0, 2 hr",30.4%
same,Production rate of Alvocidib,"[1]; pH6.0, 3 hr",75.5%
same,Residual rate,"[1]; pH6.0, 3 hr",16.8%
same,Production rate of Alvocidib,"[1]; pH6.5, 0 hr",0.2%
same,Residual rate,"[1]; pH6.5, 0 hr",99.5%
same,Production rate of Alvocidib,"[1]; pH6.5, 0.5 hr",51.7%
same,Residual rate,"[1]; pH6.5, 0.5 hr",42.2%
same,Production rate of Alvocidib,"[1]; pH6.5, 1 hr",73.5%
same,Residual rate,"[1]; pH6.5, 1 hr",20.0%
same,Production rate of Alvocidib,"[1]; pH6.5, 2 hr",87.1%
same,Residual rate,"[1]; pH6.5, 2 hr",3.8%
same,Production rate of Alvocidib,"[1]; pH6.5, 3 hr",90.0%
same,Residual rate,"[1]; pH6.5, 3 hr",0.9%
same,Production rate of Alvocidib,"[1]; pH7.0, 0 hr",0.5%
same,Residual rate,"[1]; pH7.0, 0 hr",97.8%
same,Production rate of Alvocidib,"[1]; pH7.0, 0.5 hr",82.2%
same,Residual rate,"[1]; pH7.0, 0.5 hr",9.3%
same,Production rate of Alvocidib,"[1]; pH7.0, 1 hr",89.7%
same,Residual rate,"[1]; pH7.0, 1 hr",1.3%
same,Production rate of Alvocidib,"[1]; pH7.0, 2 hr",91.0%
same,Residual rate,"[1]; pH7.0, 2 hr",0.0%
same,Production rate of Alvocidib,"[1]; pH7.0, 3 hr",91.0%
same,Residual rate,"[1]; pH7.0, 3 hr",0.0%
same,Production rate of Alvocidib,"[1]; pH7.4, 0 hr",1.3%
same,Residual rate,"[1]; pH7.4, 0 hr",97.2%
same,Production rate of Alvocidib,"[1]; pH7.4, 0.5 hr",90.5%
same,Residual rate,"[1]; pH7.4, 0.5 hr",0.8%
same,Production rate of Alvocidib,"[1]; pH7.4, 1 hr",91.2%
same,Residual rate,"[1]; pH7.4, 1 hr",0.0%
same,Production rate of Alvocidib,"[1]; pH7.4, 2 hr",91.4%
same,Residual rate,"[1]; pH7.4, 2 hr",0.0%
same,Production rate of Alvocidib,"[1]; pH7.4, 3 hr",92.1%
same,Residual rate,"[1]; pH7.4, 3 hr",0.0%
same,Stability / conversion to Alvocidib in solution formulation at pH 3,"[2]; pH 3, 5° C., up to 4 weeks",stable
same,Stability / conversion to Alvocidib in solution formulation at pH 4,"[2]; pH 4, 5° C., up to 4 weeks",gradually converted to Alvocidib
same,production rate of Alvocidib / converted to Alvocidib,"[2]; solution formulation pH 5, 5° C., after 4 weeks",about 40%
same,Production rate of Alvocidib,"[2]; pH3.0, 0 week",0.1%
same,Residual rate,"[2]; pH3.0, 0 week",99.6%
same,Production rate of Alvocidib,"[2]; pH3.0, 1 week",0.2%
same,Residual rate,"[2]; pH3.0, 1 week",99.3%
same,Production rate of Alvocidib,"[2]; pH3.0, 2 week",0.3%
same,Residual rate,"[2]; pH3.0, 2 week",99.5%
same,Production rate of Alvocidib,"[2]; pH3.0, 4 week",0.6%
same,Residual rate,"[2]; pH3.0, 4 week",99.1%
same,Production rate of Alvocidib,"[2]; pH4.0, 0 week",0.2%
same,Residual rate,"[2]; pH4.0, 0 week",99.4%
same,Production rate of Alvocidib,"[2]; pH4.0, 1 week",1.2%
same,Residual rate,"[2]; pH4.0, 1 week",98.1%
same,Production rate of Alvocidib,"[2]; pH4.0, 2 week",2.2%
same,Residual rate,"[2]; pH4.0, 2 week",97.4%
same,Production rate of Alvocidib,"[2]; pH4.0, 4 week",4.8%
same,Residual rate,"[2]; pH4.0, 4 week",94.4%
same,Production rate of Alvocidib,"[2]; pH5.0, 0 week",1.4%
same,Residual rate,"[2]; pH5.0, 0 week",98.1%
same,Production rate of Alvocidib,"[2]; pH5.0, 1 week",13.7%
same,Residual rate,"[2]; pH5.0, 1 week",84.3%
same,Production rate of Alvocidib,"[2]; pH5.0, 2 week",25.3%
same,Residual rate,"[2]; pH5.0, 2 week",71.7%
same,Production rate of Alvocidib,"[2]; pH5.0, 4 week",39.4%
same,Residual rate,"[2]; pH5.0, 4 week",55.9%
